Several values for one entry are separate records, joined by “and”; a condition that tells them apart may be missing. Identical values can stand only once. Toxic doses and inconclusive results are not listed.
Tested on: L1210 leukemia ip in BDF1 mice, survival T/C
Assay: NCI In Vivo Anticancer Drug Screen. Data for tumor model L1210 Leukemia (intraperitoneal) in B6D2F1 (BDF1) mice
Details: endpoint: mean survival time, higher = longer survival
Summary of the method: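 Ratio derived from survival: compound-dosed mice over vehicle-dosed mice, all bearing a transplantable tumor.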

[1] = dose: 100.0 mg/kg/injection, schedule: Q01DX001 (ip), vehicle: saline
[2] = dose: 200.0 mg/kg/injection, schedule: Q01DX001 (ip), vehicle: saline
[3] = dose: 400.0 mg/kg/injection, schedule: Q01DX001 (ip), vehicle: saline
[4] = dose: 100.0 mg/kg/injection, schedule: Q01DX009 (ip), vehicle: saline with Tween-80
[5] = dose: 100.0 mg/kg/injection, schedule: Q04DX002 (ip), vehicle: Klucel (hydroxypropylcellulose) (HPC)
[6] = dose: 200.0 mg/kg/injection, schedule: Q04DX002 (ip), vehicle: Klucel (hydroxypropylcellulose) (HPC)
[7] = dose: 400.0 mg/kg/injection, schedule: Q04DX002 (ip), vehicle: Klucel (hydroxypropylcellulose) (HPC)
[8] = dose: 100.0 mg/kg/injection, schedule: Q01DX009 (ip), vehicle: Klucel (hydroxypropylcellulose) (HPC)
[9] = dose: 200.0 mg/kg/injection, schedule: Q01DX009 (ip), vehicle: Klucel (hydroxypropylcellulose) (HPC)
[10] = dose: 100.0 mg/kg/injection, schedule: Q04DX003 (ip), vehicle: Klucel (hydroxypropylcellulose) (HPC)
[11] = dose: 200.0 mg/kg/injection, schedule: Q04DX003 (ip), vehicle: Klucel (hydroxypropylcellulose) (HPC)
[12] = dose: 400.0 mg/kg/injection, schedule: Q01DX009 (ip), vehicle: Klucel (hydroxypropylcellulose) (HPC)
[13] = dose: 400.0 mg/kg/injection, schedule: Q04DX003 (ip), vehicle: Klucel (hydroxypropylcellulose) (HPC)

In the case of `NCC(=O)O.[Zn+2]`, the T/C (dose: 100.0 mg/kg/injection, schedule: Q01DX001 (ip), vehicle: water) is reported as 97 % of control, the T/C (dose: 200.0 mg/kg/injection, schedule: Q01DX001 (ip), vehicle: water) is reported as 96 % of control and the T/C (dose: 400.0 mg/kg/injection, schedule: Q01DX001 (ip), vehicle: water) is reported as 94 % of control.
`NC(=O)c1ncn(C2CCCC2O)c1N` (stereo not drawn) was tested, and the T/C [1] was 91 % of control, the T/C [2] was 102 % of control and the T/C [3] was 86 % of control.
For `CCCCN(CCCC)C(=O)c1[nH]cnc1/N=N\N(C)C`, the T/C (dose: 50.0 mg/kg/injection, schedule: Q01DX009 (ip), vehicle: saline with Tween-80) was 117 % of control, the T/C (dose: 100.0 mg/kg/injection, schedule: Q01DX001 (ip), vehicle: saline with Tween-80) was 106 % of control and the T/C [4] was 108 % of control. The T/C (dose: 200.0 mg/kg/injection, schedule: Q01DX001 (ip), vehicle: saline with Tween-80) was 118 % of control.
`CC1NC=NC1C(c1ccccc1)c1ccccc1` (stereo not drawn) was tested, and the T/C (dose: 100.0 mg/kg/injection, schedule: Q04DX003 (ip), vehicle: saline with Tween-80) was 101 % of control.
In the case of `C=CC(=O)NC(C)C(=O)O` (stereo not drawn), the T/C [1] is reported as 95 % of control, the T/C [2] is reported as 102 % of control and the T/C [3] is reported as 98 % of control.
With `Cc1cc(C(=O)C=[N+]=[N-])c(CN2C(=O)c3ccccc3C2=O)c(=O)n1C` the T/C (dose: 100.0 mg/kg/injection, schedule: Q04DX003 (ip), vehicle: other) was 100 % of control, the T/C (dose: 200.0 mg/kg/injection, schedule: Q04DX003 (ip), vehicle: other) was 93 % of control and the T/C (dose: 400.0 mg/kg/injection, schedule: Q04DX003 (ip), vehicle: other) was 94 % of control.
With `Cc1ccc(Oc2ccc3c(c2)CN(C)CC3)cc1` the T/C [5] was 97 % of control, the T/C [6] was 102 % of control and the T/C [7] was 91 % of control.
For `CCCCC(=O)N/N=C/c1ccc(N(C)C)cc1Cl`, the T/C [1] was 93 % of control, the T/C [2] was 93 % of control and the T/C [3] was 96 % of control.
In the case of `O/N=C(/C=C(/C(=C/C(=N/O)c1ccccc1)c1ccccc1)c1ccccc1)c1ccccc1`, the T/C (dose: 50.0 mg/kg/injection, schedule: Q01DX009 (ip), vehicle: Klucel (hydroxypropylcellulose) (HPC)) is reported as 102 % of control, the T/C [8] is reported as 94 % of control and the T/C [9] is reported as 87 % of control.
`COc1cc2c(cc1OC)C(OC)N(C)c1c-2ccc2cc3c(cc12)OCO3` (stereo not drawn) was tested, and the T/C (dose: 5.0 mg/kg/injection, schedule: Q01DX009 (ip), vehicle: Klucel (hydroxypropylcellulose) (HPC)) was 106 % of control, the T/C (dose: 10.0 mg/kg/injection, schedule: Q01DX009 (ip), vehicle: Klucel (hydroxypropylcellulose) (HPC)) was 106 % of control and the T/C (dose: 10.0 mg/kg/injection, schedule: Q01DX009 (ip), vehicle: saline) was 123 % of control. The T/C (dose: 20.0 mg/kg/injection, schedule: Q01DX009 (ip), vehicle: Klucel (hydroxypropylcellulose) (HPC)) was 95 % of control, the T/C (dose: 20.0 mg/kg/injection, schedule: Q01DX009 (ip), vehicle: steriod suspending solution) was 163 % of control and the T/C (dose: 20.0 mg/kg/injection, schedule: Q04DX003 (ip), vehicle: saline) was 123 % of control. The T/C (dose: 40.0 mg/kg/injection, schedule: Q01DX009 (ip), vehicle: Klucel (hydroxypropylcellulose) (HPC)) was 113 % of control, the T/C (dose: 40.0 mg/kg/injection, schedule: Q04DX003 (ip), vehicle: saline) was 121 % of control and the T/C (dose: 80.0 mg/kg/injection, schedule: Q01DX009 (ip), vehicle: Klucel (hydroxypropylcellulose) (HPC)) was 111 % of control. For the same molecule, the T/C (dose: 80.0 mg/kg/injection, schedule: Q04DX003 (ip), vehicle: saline) was 124 % of control, the T/C [5] was 118 % of control and 119 % of control and the T/C [10] was 116 % of control. For the same molecule, the T/C (dose: 160.0 mg/kg/injection, schedule: Q01DX009 (ip), vehicle: Klucel (hydroxypropylcellulose) (HPC)) was 109 % of control, the T/C (dose: 160.0 mg/kg/injection, schedule: Q04DX003 (ip), vehicle: saline) was 112 % of control and the T/C [9] was 122 % of control. For the same molecule, the T/C [6] was 123 % of control, the T/C [11] was 111 % of control and the T/C (dose: 320.0 mg/kg/injection, schedule: Q01DX009 (ip), vehicle: Klucel (hydroxypropylcellulose) (HPC)) was 111 % of control. For the same molecule, the T/C [12] was 124 % of control, the T/C [7] was 152 % of control and the T/C [13] was 106 % of control.
For `CC(C)=CCC(C#N)(CCN(C)C)c1cccc2ccccc12` (stereo not drawn), the T/C (dose: 25.0 mg/kg/injection, schedule: Q01DX009 (ip), vehicle: saline) was 98 % of control, the T/C (dose: 50.0 mg/kg/injection, schedule: Q01DX009 (ip), vehicle: saline) was 101 % of control and the T/C (dose: 100.0 mg/kg/injection, schedule: Q01DX009 (ip), vehicle: saline) was 94 % of control. For the same molecule, the T/C (dose: 100.0 mg/kg/injection, schedule: Q04DX003 (ip), vehicle: saline) was 98 % of control.
In the case of `CC12CCC(Cl)(CC1O)C2(C)C` (stereo not drawn), the T/C (dose: 75.0 mg/kg/injection, schedule: Q01DX001 (ip), vehicle: saline) is reported as 102 % of control and the T/C (dose: 150.0 mg/kg/injection, schedule: Q01DX001 (ip), vehicle: saline) is reported as 97 % of control.
With `C(=Nc1ccc2c(c1)Cc1ccccc1-2)c1ccccc1` the T/C [8] was 104 % of control, the T/C [10] was 100 % of control and the T/C [9] was 96 % of control. For the same molecule, the T/C [11] was 95 % of control and the T/C [13] was 103 % of control.
For `CCc1cc(C)cc(OC(=O)Nc2cccc(Cl)c2)c1`, the T/C [4] was 88 % of control and the T/C (dose: 200.0 mg/kg/injection, schedule: Q01DX009 (ip), vehicle: saline with Tween-80) was 90 % of control.
For `Cc1ccc(NC(=O)c2ccc(Cl)cc2)c(C)c1`, the T/C [8] was 94 % of control, the T/C [10] was 106 % of control and the T/C [9] was 100 % of control. For the same molecule, the T/C [11] was 96 % of control and the T/C [13] was 98 % of control.
`COC1C(N)C(O)OC(CO)C1O` (stereo not drawn) was tested, and the T/C [1] was 99 % of control, the T/C [2] was 103 % of control and the T/C [3] was 94 % of control.
For `O=[N+]([O-])c1ccc(/C=C/C=C\c2ccc(S(=O)(=O)F)cc2Cl)cc1`, the T/C [10] was 96 % of control, the T/C [11] was 92 % of control and the T/C [13] was 96 % of control.
For `N#Cc1cccc(C(Br)S(=O)(=O)c2ccccc2)c1` (stereo not drawn), the T/C [5] was 116 % of control, the T/C [6] was 111 % of control and the T/C [7] was 90 % of control.
For `CC(=O)N(c1ccccc1)c1ccc(-c2ccc(N(C(C)=O)c3ccccc3)cc2)cc1`, the T/C (dose: 50.0 mg/kg/injection, schedule: Q01DX001 (ip), vehicle: other) was 100 % of control, the T/C (dose: 100.0 mg/kg/injection, schedule: Q01DX001 (ip), vehicle: other) was 105 % of control and the T/C (dose: 200.0 mg/kg/injection, schedule: Q01DX001 (ip), vehicle: other) was 100 % of control. For the same molecule, the T/C (dose: 400.0 mg/kg/injection, schedule: Q01DX001 (ip), vehicle: other) was 89 % of control.
For `c1ccc(C2CCN3c4ccc5ccccc5c4NCC23)cc1` (stereo not drawn), the T/C [5] was 107 % of control, the T/C [6] was 93 % of control and the T/C [7] was 93 % of control.
With `O=c1oc(-c2ccccc2I)nc2ccccc12` the T/C (dose: 50.0 mg/kg/injection, schedule: Q04DX003 (ip), vehicle: Klucel (hydroxypropylcellulose) (HPC)) was 88 % of control, the T/C [8] was 95 % of control and the T/C [10] was 103 % of control. The T/C [9] was 97 % of control, the T/C [11] was 97 % of control and the T/C [12] was 88 % of control. The T/C [13] was 104 % of control.
For `CCOc1ccccc1NC(c1ccc(OC)cc1)P(=O)(c1ccccc1)c1ccccc1` (stereo not drawn), the T/C [10] was 101 % of control, the T/C [11] was 101 % of control and the T/C [13] was 92 % of control.
In the case of `Cc1nc(C#N)c(C#N)nc1-c1ccccc1`, the T/C (dose: 100.0 mg/kg/injection, schedule: Q04DX002 (ip), vehicle: saline with Tween-80) is reported as 95 % of control, the T/C (dose: 200.0 mg/kg/injection, schedule: Q04DX002 (ip), vehicle: saline with Tween-80) is reported as 95 % of control and the T/C (dose: 400.0 mg/kg/injection, schedule: Q04DX002 (ip), vehicle: saline with Tween-80) is reported as 95 % of control.
For `CCCCNC(=O)n1ncc2ccc([N+](=O)[O-])cc21`, the T/C [1] was 105 % of control, the T/C [2] was 105 % of control and the T/C [3] was 102 % of control.
In the case of `Cc1cc(CC(=O)c2ccccc2)[nH]c(=O)c1`, the T/C [1] is reported as 103 % of control, the T/C [2] is reported as 101 % of control and the T/C [3] is reported as 101 % of control.
In the case of `C1CCC2=NCCCN2CC1`, the T/C (dose: 5.0 mg/kg/injection, schedule: Q01DX001 (ip), vehicle: saline) is reported as 101 % of control, the T/C (dose: 10.0 mg/kg/injection, schedule: Q01DX001 (ip), vehicle: saline) is reported as 101 % of control and the T/C (dose: 20.0 mg/kg/injection, schedule: Q01DX001 (ip), vehicle: saline) is reported as 103 % of control. For the same molecule, the T/C (dose: 40.0 mg/kg/injection, schedule: Q01DX001 (ip), vehicle: saline) was 97 % of control.
In the case of `Cc1cccc(C)c1NC(=O)Oc1c(C)cccc1C`, the T/C [8] is reported as 106 % of control, the T/C [10] is reported as 102 % of control and the T/C [9] is reported as 101 % of control. For the same molecule, the T/C [11] was 102 % of control, the T/C [12] was 97 % of control and the T/C [13] was 100 % of control.
With `CC1CC(C)CC(C)C(O)/C(C#N)=C/C=C/CC(C2CCCC2C(=O)O)OC(=O)CC(O)C(C)C1` (stereo not drawn) the T/C (dose: 0.5 mg/kg/injection, schedule: Q01DX009 (ip), vehicle: saline with Tween-80) was 98 % of control, the T/C (dose: 1.0 mg/kg/injection, schedule: Q01DX009 (ip), vehicle: saline with Tween-80) was 104 % of control and the T/C (dose: 2.0 mg/kg/injection, schedule: Q01DX009 (ip), vehicle: saline with Tween-80) was 96 % of control.

— PubChem BioAssay AID248 (DTP/NCI, 2004)
